Experiments:
Format in all cases: binding
Settings in all cases: Compound Concentration 10 µM
panel of 442 kinases [1] = biological target: T1, panel of 442 kinases (Homo sapiens, UniProt O15146)
T1 construct: purchased KINOMEscan
T1 sequence (O15146 24-869): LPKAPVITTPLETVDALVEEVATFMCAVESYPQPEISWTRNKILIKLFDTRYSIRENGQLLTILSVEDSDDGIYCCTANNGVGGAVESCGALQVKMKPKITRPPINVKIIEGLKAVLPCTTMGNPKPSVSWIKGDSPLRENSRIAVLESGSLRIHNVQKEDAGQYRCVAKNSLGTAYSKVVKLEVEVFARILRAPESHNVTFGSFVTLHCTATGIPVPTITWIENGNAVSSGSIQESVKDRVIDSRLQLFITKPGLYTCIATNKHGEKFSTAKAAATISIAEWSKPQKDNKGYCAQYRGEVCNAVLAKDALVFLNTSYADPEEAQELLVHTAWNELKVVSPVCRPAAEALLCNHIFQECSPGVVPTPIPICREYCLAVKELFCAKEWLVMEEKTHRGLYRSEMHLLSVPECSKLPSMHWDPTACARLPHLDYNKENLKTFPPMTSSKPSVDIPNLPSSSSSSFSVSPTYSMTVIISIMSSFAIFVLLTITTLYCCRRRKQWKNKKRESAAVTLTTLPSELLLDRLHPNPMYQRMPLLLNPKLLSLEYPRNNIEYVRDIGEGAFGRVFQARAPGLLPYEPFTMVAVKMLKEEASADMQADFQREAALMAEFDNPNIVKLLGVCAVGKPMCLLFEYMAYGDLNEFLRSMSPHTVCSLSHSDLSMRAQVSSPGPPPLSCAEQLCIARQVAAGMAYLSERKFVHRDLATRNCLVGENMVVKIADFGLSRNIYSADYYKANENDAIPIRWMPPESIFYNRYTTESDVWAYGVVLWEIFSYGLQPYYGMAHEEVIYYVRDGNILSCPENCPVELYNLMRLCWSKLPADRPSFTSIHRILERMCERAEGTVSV
Description: (§1) We assessed the selectivity of members of this scaffold using the KINOMEscan methodology across a near comprehensive panel of 442 kinases [[18,27]].

panel of 442 kinases [2] = biological target: T2, panel of 442 kinases (Homo sapiens, UniProt Q14680)
T2 construct: purchased KINOMEscan
Description: as §1

panel of 442 kinases [3] = biological target: T3, panel of 442 kinases (Homo sapiens, UniProt P11802)
T3 construct: purchased KINOMEscan
Description: as §1

T3 sequence (P11802 whole entry): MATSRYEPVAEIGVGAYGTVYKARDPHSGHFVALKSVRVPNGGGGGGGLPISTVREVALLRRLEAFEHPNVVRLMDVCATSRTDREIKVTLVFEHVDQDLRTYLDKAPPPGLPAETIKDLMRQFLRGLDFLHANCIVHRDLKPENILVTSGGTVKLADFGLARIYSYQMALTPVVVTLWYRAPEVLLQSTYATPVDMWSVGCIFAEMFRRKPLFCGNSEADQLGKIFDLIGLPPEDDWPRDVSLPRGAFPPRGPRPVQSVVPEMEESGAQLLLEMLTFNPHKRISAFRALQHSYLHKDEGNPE
T2 sequence (Q14680 whole entry): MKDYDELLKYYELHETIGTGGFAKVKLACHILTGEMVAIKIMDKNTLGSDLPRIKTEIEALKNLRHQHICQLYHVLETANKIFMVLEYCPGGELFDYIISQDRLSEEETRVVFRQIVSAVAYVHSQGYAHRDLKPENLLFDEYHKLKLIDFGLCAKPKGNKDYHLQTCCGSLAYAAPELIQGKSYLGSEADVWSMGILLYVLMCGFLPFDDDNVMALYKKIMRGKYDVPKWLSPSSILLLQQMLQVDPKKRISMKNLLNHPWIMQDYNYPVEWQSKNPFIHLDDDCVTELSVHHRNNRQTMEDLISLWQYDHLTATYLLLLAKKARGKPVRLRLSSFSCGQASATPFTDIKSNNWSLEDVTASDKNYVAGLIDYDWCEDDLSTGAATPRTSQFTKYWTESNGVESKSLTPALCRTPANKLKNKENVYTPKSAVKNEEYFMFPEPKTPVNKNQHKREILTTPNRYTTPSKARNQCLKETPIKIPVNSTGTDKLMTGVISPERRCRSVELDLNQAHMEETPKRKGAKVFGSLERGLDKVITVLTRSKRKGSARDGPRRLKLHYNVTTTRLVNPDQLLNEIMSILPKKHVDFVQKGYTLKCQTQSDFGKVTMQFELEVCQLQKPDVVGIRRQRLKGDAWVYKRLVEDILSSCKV

Structure (SMILES)	KINOMEscan: MUSK (panel of 442 kinases [1])	KINOMEscan: MELK (panel of 442 kinases [2])	KINOMEscan: CDK4-cyclinD1 (panel of 442 kinases [3])	KINOMEscan: CDK4-cyclinD3 (panel of 442 kinases [3])
COc1cc(C(=O)N2CCC(N3CCN(C)CC3)CC2)ccc1Nc1ncc2c(n1)N(C)c1ccccc1C(=O)N2C [15 (LRRK2-IN-1)]	99	100	100	100
CCOc1cc(C(=O)N2CCC(N3CCN(C)CC3)CC2)ccc1Nc1ncc2c(n1)N(C1CCCC1)c1ccccc1C(=O)N2C [Compound 26]	100	100	91	100
COc1cc(C(=O)N2CCC(N3CCN(C)CC3)CC2)ccc1Nc1ncc2c(n1)N1CCc3cccc(c31)C(=O)N2C [Compound 24]	–	62	–	–
COc1cc(C(=O)N2CCC(N3CCN(C)CC3)CC2)ccc1Nc1ncc2c(n1)N(C1CCCC1)c1ccccc1C(=O)N2C [Compound 25, 11-cyclopentyl-2-((2-methoxy-4-(4-(4-methylpiperazin-1-yl)piperidine-1-carbonyl)phenyl)amino)-5-methyl-5H-benzo[e]pyrimido[5,4-b][1,4]diazepin-6(11H)-one]	100	100	100	73

— publication PMC3914206
